“And” between values parts separate entries of the source, which are not always exact repeats. Equal values may be shown once.
Assays:
[1] = system: HIV-1 gag/pol −1 frameshift signal sequence (HIV-1 frameshift construct); experiment: Dual fluorescent reporter (EGFP/DsRed) recoding assay in transiently transfected COS-7 cells, with Null 0 control construct; type: cell-based; conditions: for Minus 1 Frameshift Construct EGFP signal, Average / Null 0 Frameshift Construct EGFP signal, Average: 485 excitation 520-P emission; for Minus 1 Frameshift Construct DsRed signal, Average / Null 0 Frameshift Construct DsRed signal, Average: 525 excitation 600LP emission; for Frameshift: DsRed 525 excitation/600LP emission
Description: Mammalian COS-7 cells were grown, harvested, trypsinised, washed and diluted to 1×10^5 cells/ml all under standard conditions.
The diluted cells were then split into two equal portions. One portion was transiently transfected with the recoding construct, and other with the Null 0 frame control construct. Transient transfection was performed using 2 μL of FuGENE® 6 transfection reagent (Roche) and 500 ng of DNA for every mL of cells, in accordance with the manufacturing instructions.
Transfected cells were seeded in 24 well plates under standard conditions. Cycloheximide was added in triplicate at 50 nM and the plates were then incubated for 48 hours at 37° C.
The cells were washed 3 times with Phosphate Buffered Saline (PBS) to remove any traces of culture medium. 100 ul of Passive Lysis buffer (Promega) was added. The cells were frozen. The frozen cells were then thawed and transferred to a 96 well plate, and fluorescence intensity was read in the BMG PolarStar plate reader.
Plate reader settings were as follows:
Filters 485 excitation, 520-P emission
Filters 544 excitation, 590 emission
[[DsRed signal: HIV-1 frameshift construct]/[EGFP signal: HIV-1 frameshift construct]]/[[DsRed signal: Null 0 frameshift construct]/[EGFP signal: Null 0 frameshift construct]]
The diluted cells were then split into two equal portions. One portion was transfected, as described in Example 3, with the recoding construct, and other with the Null 0 frame control construct.
Cells were then seeded in 24 well plates under standard conditions. Anisomycin was added in triplicate at 50 nM and the plates were then incubated for 48 hours at 37° C.
The cells were prepared as described in examples 3 and 4.
DsRed signal at 525 excitation, 600LP emission
EGFP signal at 485 excitation, 520-P emission
Frameshift figures, shown in Table 5, were calculated using the formula shown in Example 3 using data from Tables 1, 2, 3 and 4.
Transfected cells were prepared as described in Example 5, and treated with 0 nM (no drug) 100 nM, 200 nM, 300 nM, 400 nM and 500 nM concentrations of anisomycin.
Incubation, plate reader setting and readings were as described in Example 5.
For the anisomycin titrations, the frameshift figures, shown in Table 10, were calculated using the formula shown in Example 3 using data from Tables 6, 7, 8 and 9.

[2] = system: HIV-1 gag/pol −1 frameshift signal sequence (HIV-1 frameshift construct); experiment: Stably transfected dual fluorescent reporter recoding assay in Flp-In CV1 cells (−1 frame construct); type: cell-based; conditions: for DsRed/EGFP ratio / Percentage decrease in ratio / Minus 1 Frameshift Construct EGFP signal, Average / Minus 1 Frameshift Construct DsRed signal, Average: 120 hours; for DsRed/EGFP ratio / Percentage decrease in ratio: stable Flp-In CV1 cells; for DsRed/EGFP ratio: not normalised to Null 0, expressed as a percentage; for Percentage decrease in ratio: vs no drug; for Minus 1 Frameshift Construct EGFP signal, Average: 485 excitation 515 emission; for Minus 1 Frameshift Construct DsRed signal, Average: 535 excitation 590 emission
Description: The translational recoding construct described above was excised via Hind III and Not I restrictions sites and ligated into a Flp-In™ pcDNA5/FRT expression vector (Invitrogen Life Technologies) before being stably transformed into Flp-In™ CV1 cells (Invitrogen Life Technologies) according to the manufacturer's instructions.
Flp-In CV1 cells (CV1 cells), as described in Example 2, transfected with the −1 frame construct, and untransfected CV1 cells were grown, harvested, trypsinised, washed and diluted to 1×10^5 cells/ml all under standard conditions.
Cells were then seeded in 96 well plates under standard conditions. The plates were then incubated for 120 hours at 37° C.
The cells were washed 3 times with Phosphate Buffered Saline (PBS) to remove any traces of culture medium. 100 ul of Passive Lysis buffer (Promega) was added. The cells were frozen. The frozen cells were then thawed and fluorescence intensity was read in the Tecan Genios Pro plate reader.
Plate reader setting were as follows:
Filters 485 excitation, 515 emission
Filters 535 excitation, 590 emission
As a Null 0 frameshift construct was not used in this experiment ratios of the DsRed to EGFP signal were calculated to take into account the decrease in the EGFP signal with increasing drug concentrations.
The calculation was similar to example 3, with the counts averaged, the control cell counts removed before working out the ratio of the DsRed signal to the EGFP signal. Normalisation using a Null 0 frame construct could not be performed, with the results below being expressed as a percentage. The calculation was a follows: [[DsRed signal: HIV-1 frameshift construct]/[EGFP signal: HIV-1 frameshift construct]]

[3] = 50 nM, 48 hours, 485 excitation, 520-P emission
[4] = 50 nM, 48 hours, 544 excitation, 590 emission
[5] = 100 nM, COS-7, 525/600LP filters, vs no drugs

C[C@@H]1C[C@@H]([C@H](O)CC2CC(=O)NC(=O)C2)C(=O)[C@@H](C)C1 [Cycloheximide]
decrease in frameshift from the original (no drug) value ([1]; 50 nM, 48 hours, COS-7, 544/590 filters): 5%
absolute change frameshift efficiency ([1]; 50 nM, 48 hours, COS-7, vs no drug control, 544/590 filters): 0.29%
EGFP signal, HIV-1 frameshift construct, average [1, 3]: 24268 RFU
EGFP signal, HIV-1 frameshift construct, average minus control [1, 3]: 23858 RFU
EGFP signal, Null 0 frameshift construct, average [1, 3]: 42054 RFU
EGFP signal, Null 0 frameshift construct, average minus control [1, 3]: 41644 RFU
DsRed signal, HIV-1 frameshift construct, average [1, 4]: 1447 RFU
DsRed signal, HIV-1 frameshift construct, average minus control [1, 4]: 1342 RFU
DsRed signal, Null 0 frameshift construct, average [1, 4]: 43596 RFU
DsRed signal, Null 0 frameshift construct, average minus control [1, 4]: 43491 RFU
Minus 1 Frameshift Construct EGFP signal, Average ([1]; 100 nM): 23068
Null 0 Frameshift Construct EGFP signal, Average ([1]; 100 nM): 41181
Minus 1 Frameshift Construct DsRed signal, Average ([1]; 100 nM): 2384
Null 0 Frameshift Construct DsRed signal, Average ([1]; 100 nM): 39126
Percentage decrease in frameshift [1, 5]: 2.7% and 2.71%
absolute change in frameshift efficiency [1, 5]: 0.23%
Frameshift ([1]; 100 nM, COS-7): 8.25%
Minus 1 Frameshift Construct EGFP signal, Average ([1]; 200 nM): 25793
Null 0 Frameshift Construct EGFP signal, Average ([1]; 200 nM): 42120
Minus 1 Frameshift Construct DsRed signal, Average ([1]; 200 nM): 2567
Null 0 Frameshift Construct DsRed signal, Average ([1]; 200 nM): 40152
Percentage decrease in frameshift ([1]; 200 nM, COS-7, 525/600LP filters, vs no drugs): 4.51%
Frameshift ([1]; 200 nM, COS-7): 8.10%
Minus 1 Frameshift Construct EGFP signal, Average ([1]; 300 nM): 27197
Null 0 Frameshift Construct EGFP signal, Average ([1]; 300 nM): 46595
Minus 1 Frameshift Construct DsRed signal, Average ([1]; 300 nM): 2674
Null 0 Frameshift Construct DsRed signal, Average ([1]; 300 nM): 45168
Percentage decrease in frameshift ([1]; 300 nM, COS-7, 525/600LP filters, vs no drugs): 6.17%
Frameshift ([1]; 300 nM, COS-7): 7.96%
Minus 1 Frameshift Construct EGFP signal, Average ([1]; 400 nM): 27613
Null 0 Frameshift Construct EGFP signal, Average ([1]; 400 nM): 42950
Minus 1 Frameshift Construct DsRed signal, Average ([1]; 400 nM): 2704
Null 0 Frameshift Construct DsRed signal, Average ([1]; 400 nM): 41311
Percentage decrease in frameshift ([1]; 400 nM, COS-7, 525/600LP filters, vs no drugs): 5.52%
Frameshift ([1]; 400 nM, COS-7): 8.01%
Minus 1 Frameshift Construct EGFP signal, Average ([1]; 500 nM): 28615
Null 0 Frameshift Construct EGFP signal, Average ([1]; 500 nM): 42742
Minus 1 Frameshift Construct DsRed signal, Average ([1]; 500 nM): 2790
Null 0 Frameshift Construct DsRed signal, Average ([1]; 500 nM): 41338
Percentage decrease in frameshift ([1]; 500 nM, COS-7, 525/600LP filters, vs no drugs): 5.66%
Frameshift ([1]; 500 nM, COS-7): 8.00%
effect on −1 frameshifting ([1]; result in words): antagonists to −1 frameshifting
DsRed/EGFP ratio ([2]; 50 nM): 7.38%
Percentage decrease in ratio ([2]; 50 nM): 4.11%
Minus 1 Frameshift Construct EGFP signal, Average ([2]; 50 nM): 11313
Minus 1 Frameshift Construct DsRed signal, Average ([2]; 50 nM): 1220
DsRed/EGFP ratio ([2]; 100 nM): 7.28%
Percentage decrease in ratio ([2]; 100 nM): 5.39%
Minus 1 Frameshift Construct EGFP signal, Average ([2]; 100 nM): 11262
Minus 1 Frameshift Construct DsRed signal, Average ([2]; 100 nM): 1210
DsRed/EGFP ratio ([2]; 500 nM): 5.47%
Percentage decrease in ratio ([2]; 500 nM): 28.91%
Minus 1 Frameshift Construct EGFP signal, Average ([2]; 500 nM): 8638
Minus 1 Frameshift Construct DsRed signal, Average ([2]; 500 nM): 948
DsRed/EGFP ratio ([2]; 1000 nM): 3.25%
Percentage decrease in ratio ([2]; 1000 nM): 57.82%
Minus 1 Frameshift Construct EGFP signal, Average ([2]; 1000 nM): 7308
Minus 1 Frameshift Construct DsRed signal, Average ([2]; 1000 nM): 818
DsRed/EGFP ratio ([2]; 2000 nM): −2.94%
Percentage decrease in ratio ([2]; 2000 nM): 138.27%
Minus 1 Frameshift Construct EGFP signal, Average ([2]; 2000 nM): 6285
Minus 1 Frameshift Construct DsRed signal, Average ([2]; 2000 nM): 688
% decrease in ratio over concentration range ([2]; range between 50 nM and 2000 nM, stable cells, result in words): dose responsive effect

Reference: patent US8389236B2, “Assay” (Otago Innovation Limited, priority 2005, dated 2013)
